# Experimental data reported in patent US20210261570A1, “ANTIBIOTIC RESISTANCE BREAKERS” (KING'S COLLEGE LONDON, priority 2017, published 2021).
# Like-named read-outs stand apart in the source and are kept apart here.
# Tested on: Neisseria gonorrhoeae strains
# Format: cell-based
# Text: Untreated controls and blank wells were included.
smiles,measurement,setting,value
C[C@H]1COc2c(N3CC[C@@H](Nc4ncccn4)C3)c(F)cc3c(=O)c(C(=O)O)cn1c23 [KSN-82-L22],MIC,"strain FDA-CDC AR-BANK#0173, resistance CIP-R PEN-R TET-R",2 µg/mL
same,MIC,"strain FDA-CDC AR-BANK#0174, resistance CIP-R PEN-R TET-R",2 µg/mL
same,MIC,"strain FDA-CDC AR-BANK#0175, resistance CIP-S PEN-I TET-I",≤0.03125 µg/mL
same,MIC,"strain FDA-CDC AR-BANK#0176, resistance CIP-R PEN-R TET-R",2 µg/mL
same,MIC,"strain FDA-CDC AR-BANK#0177, resistance CIP-S PEN-I TET-R",≤0.03125 µg/mL
same,MIC,"strain FDA-CDC AR-BANK#0178, resistance CIP-R PEN-R TET-R",2 µg/mL
same,MIC,"strain FDA-CDC AR-BANK#0179, resistance CIP-S PEN-S TET-I",≤0.03125 µg/mL
same,MIC,"strain FDA-CDC AR-BANK#0180, resistance CIP-R PEN-I TET-R",2 µg/mL
same,MIC,"strain FDA-CDC AR-BANK#0181, resistance CIP-S PEN-I TET-R",≤0.03125 µg/mL
same,MIC,"strain FDA-CDC AR-BANK#0182, resistance CIP-R PEN-I TET-R",2 µg/mL
same,MIC,"strain FDA-CDC AR-BANK#0183, resistance CIP-R PEN-R TET-R",2 µg/mL
same,MIC,"strain FDA-CDC AR-BANK#0184, resistance CIP-R PEN-R TET-R",2 µg/mL
same,MIC,"strain FDA-CDC AR-BANK#0185, resistance CIP-R PEN-I TET-R",2 µg/mL
same,MIC,"strain FDA-CDC AR-BANK#0186, resistance CIP-R PEN-R TET-R",1 µg/mL
same,MIC,"strain FDA-CDC AR-BANK#0187, resistance CIP-R PEN-I TET-R",2 µg/mL
same,MIC,"strain FDA-CDC AR-BANK#0188, resistance CIP-R PEN-I TET-R",1 µg/mL
same,MIC,"strain FDA-CDC AR-BANK#0189, resistance CIP-R PEN-R TET-R",2 µg/mL
same,MIC,"strain FDA-CDC AR-BANK#0190, resistance CIP-R PEN-R TET-R",2 µg/mL
same,MIC,"strain FDA-CDC AR-BANK#0191, resistance CIP-R PEN-R TET-R",2 µg/mL
same,MIC,"strain FDA-CDC AR-BANK#0192, resistance CIP-R PEN-R TET-R",2 µg/mL
same,MIC,"strain FDA-CDC AR-BANK#0193, resistance CIP-S PEN-R TET-R",≤0.03125 µg/mL
same,MIC,"strain FDA-CDC AR-BANK#0194, resistance CRO-NS CIP-S PEN-I TET-R",≤0.03125 µg/mL
same,MIC,"strain FDA-CDC AR-BANK#0195, resistance CIP-R PEN-I TET-R",2 µg/mL
same,MIC,"strain FDA-CDC AR-BANK#0196, resistance CIP-R PEN-R TET-R",2 µg/mL
same,MIC,"strain FDA-CDC AR-BANK#0197, resistance CIP-R PEN-I TET-I",2 µg/mL
same,MIC,"strain FDA-CDC AR-BANK#0198, resistance CIP-R PEN-R TET-R",2 µg/mL
same,MIC,"strain FDA-CDC AR-BANK#0199, resistance CIP-S PEN-R TET-R",≤0.03125 µg/mL
same,MIC,"strain FDA-CDC AR-BANK#0200, resistance CIP-R PEN-R TET-R",2 µg/mL
same,MIC,"strain FDA-CDC AR-BANK#0201, resistance CIP-R PEN-R TET-R",2 µg/mL
same,MIC,"strain FDA-CDC AR-BANK#0202, resistance CIP-S PEN-S TET-I",≤0.03125 µg/mL
same,MIC,"strain FDA-CDC AR-BANK#0203, resistance CIP-R PEN-R TET-R",2 µg/mL
same,MIC,"strain FDA-CDC AR-BANK#0204, resistance CIP-R PEN-I TET-R",2 µg/mL
same,MIC,"strain FDA-CDC AR-BANK#0205, resistance CIP-R PEN-R TET-R",2 µg/mL
same,MIC,"strain FDA-CDC AR-BANK#0206, resistance CIP-R PEN-R TET-R",2 µg/mL
same,MIC,"strain FDA-CDC AR-BANK#0207, resistance CIP-R PEN-R TET-R",2 µg/mL
same,MIC,"strain FDA-CDC AR-BANK#0208, resistance CIP-R PEN-I TET-R",2 µg/mL
same,MIC,"strain FDA-CDC AR-BANK#0209, resistance CIP-R PEN-I TET-R",2 µg/mL
same,MIC,"strain FDA-CDC AR-BANK#0210, resistance CIP-R PEN-I TET-I",2 µg/mL
same,MIC,"strain FDA-CDC AR-BANK#0211, resistance CIP-R PEN-R TET-R",2 µg/mL
same,MIC,"strain FDA-CDC AR-BANK#0212, resistance CIP-R PEN-I TET-R",2 µg/mL
same,MIC,"strain FDA-CDC AR-BANK#0213, resistance CIP-R PEN-I TET-I",1 µg/mL
same,MIC,"strain FDA-CDC AR-BANK#0214, resistance CIP-R PEN-R TET-R",2 µg/mL
same,MIC,"strain NCTC 13817, resistance PEN-R TET-I",0.5 µg/mL
same,MIC,"strain NCTC 13818, resistance CIP-R OFX-R PEN-R TET-R",2 µg/mL
same,MIC,"strain NCTC 13819, resistance FEP-NS CAZ-NS CIP-R OFX-R PEN-R TET-I",2 µg/mL
same,MIC,"strain NCTC 13820, resistance FEP-NS CFM-NS CAZ-NS CRO-NS CIP-R OFX-R PEN-R TET-R",2 µg/mL
same,MIC,"strain NCTC 13821, resistance FEP-NS CFM-NS CAZ-NS CRO-NS CIP-R PEN-I TET-I",2 µg/mL
same,MIC,"strain NCTC 13822, resistance FEP-NS CFM-NS CAZ-NS CIP-R OFX-R PEN-R TET-I",2 µg/mL
same,MIC,"strain TCDC-NG08107, resistance PEN-R CFM-R CPD-R CIP-R",2 µg/mL
